Assay results from EP1102770B1, “PARAMAGNETIC 3-,8-SUBSTITUTED DEUTEROPORPHYRIN DERIVATIVES, PHARMACEUTICAL PREPARATIONS CONTAINING SAME, METHOD FOR PRODUCING SAME AND THEIR USE IN MAGNETIC RESONANCE IMAGING OF NECROSIS AND INFARCTION” (SCHERING AKTIENGESELLSCHAFT, priority 1998, dated 2000).
“And” between values parts separate entries of the source, which are not always exact repeats. Equal values may be shown once.

What was measured:
[1] = In vivo comparison of blood kinetics with Dy-DTPA; conditions: for Blutkonzentrationen: rats, i.v. 82 µmol Gd/kg
Text: Als Versuchstiere dienten drei 250 g schwere, männliche (Schering-SPF-) Ratten. […] Aus den Blut- bzw. Plasmakonzentrationen kann mittels spezieller Software (Topfit-Programm) die α-t ½ und β- t ½ Eliminations-Halbwertzeiten, das Verteilungsvolumen sowie die total Clearance für Blut und Plasma errechnet werden. Damit liefern diese Daten Angaben über den Verbleib der Verbindungen im Intravasalraum, die Verteilungsverhältnisse im Organismus und die Eliminierung.

[2] = system: Tieren mit induziertem Myocardinfarkt; assay: MRI experiments in animals with induced myocardial infarction (necrosis-selective enhancement); format: in vivo, Ratten (Han.Wistar, Schering SPF); conditions: for Enhancement im nekrotischen Areal des Myocards: single i.v. dose 100 µmol Gd / kg KGW ca. 24 h after infarct induction, middle and late phase, 2.5 to ca. 24 h p. i., MRI 2 Tesla; for Abgrenzung des nekrotischen Areals im MRI-Experiment, Korrelation mit histologischer NBT ("Vital"-) Färbung: single i.v. dose 100 µmol Gd / kg KGW, heart prepared ca. 24 h p. i.
Protocol: Das nekroseselektive Enhancement wurde nach einmaliger intravenöser Applikation der Substanz aus Beispiel 1d an Tieren mit experimentell erzeugtem Myocardinfarkt im MRI Experiment untersucht. Die Induktion der Herzinfarkte erfolgte an narkotisierten (Domitor®/Dormicum®, i.m.) Ratten (Han.Wistar, Schering SPF, ca.300 g KGW) durch Okklusion der linken Coronararterie. Die Kontrastmittelapplikation (Dosis: 100 µmol Gd / kg KGW) erfolgte ca. 24 h nach der Infarktinduktion. Die Tiere wurden vor und bis 24 h nach KM-Applikation MR-tomographisch (SISCO SIS 85, 2 Tesla; SE-Sequenz, EKG-getriggert, TR: ca. 400 ms, TE: 10 ms, nt=4, ni=256, FOV: 7*7 cm, SD ≈ 3 mm, je 1 Schicht axial) untersucht. Ca. 24 h p. i. wurden die Tiere - im MRT - durch eine Narkotikaüberdosis getötet und zusätzlich ein MRI-Experiment am "frischtoten" Tier (--> keine Bewegungsartefakte) durchgeführt. Zur Verifizierung des Infarktes (Größe und Lage) wurde das Herz präpariert, in Scheiben geschnitten und anschließend eine NBT ("Vital-") Färbung durchgeführt. Vor KM-Applikation ist das infarzierte Areal nicht vom "normalen" Myocard zu unterscheiden, da sich beide Areale isointens darstellen (s. Abb.: 1a). Direkt nach der Substanzapplikation stellt sich der nicht-perfundierte Anteil des Myocards als hypointenses Areal dar (s. Abb.: 1b). Ab ca. 30 min p. i. steigt die Signalintensität im nicht-perfundierten Areal etwas an bzw. die Größe des abgegrenzten (Signalarmen) Areals nimmt ab (--> langsame Diffusion in die Nekrose).
Das nekroseselektive Enhancement wurde nach einmaliger intravenöser Applikation der Substanz aus Beispiel 2d an Tieren mit experimentell erzeugtem Myocardinfarkt im MRI Experiment untersucht. Die Induktion der Herzinfarkte erfolgte an narkotisierten (Domitor®/Dormicum®, i.m.) Ratten (Han.Wistar, Schering SPF, ca.300 g KGW) durch Okklusion der linken Coronararterie. Die Kontrastmittelapplikation (Dosis: 100 µmol Gd / kg KGW ) erfolgte ca. 24 h nach der Infarktinduktion. Die Tiere wurden vor und bis 3 h (kontinuierlich) sowie 24 h nach KM-Applikation MR-tomographisch (SISCO SIS 85, 2 Tesla; SE-Sequenz, EKG-getriggert, TR: ca. 400 ms, TE: 10 ms, nt=4, ni=256, FOV: 7*7 cm, SD ≈ 3 mm, je 1 Schicht axial) untersucht. Ca. 24 h p. i. wurden die Tiere - im MRT - durch eine Narkotikaüberdosis getötet und ein MRI-Experiment am "frischtoten" Tier (--> keine Bewegungsartefakte) durchgeführt. Zur Verifizierung des Infarktes (Größe und Lage) wurde das Herz präpariert, in Scheiben geschnitten und anschließend eine NBT (nitro blue tetrazolium chlorid) Färbung durchgeführt. Vor KM-Applikation ist das infarzierte Areal nicht vom "normalen" Myocard zu unterscheiden, da sich beide Areale isointens darstellen (s. Abb.: 2a). Direkt nach der Substanzapplikation stellt sich der nicht-perfundierte Anteil des Myocards als hypointenses Areal dar (s. Abb.: 2b). Ab ca. 30 min p. i. steigt die Signalintensität im nicht-perfundierten Areal etwas an bzw. die Größe des abgegrenzten (signalarmen) Areals nimmt ab (--> langsame Diffusion in die Nekrose).
Das nekroseselektive Enhancement wurde nach einmaliger intravenöser Applikation der Substanz aus Beispiel 4d an Tieren mit experimentell erzeugtem Myocardinfarkt im MRI Experiment untersucht. Die Induktion der Herzinfarkte erfolgte an narkotisierten (Domitor®/Dormicum®, i. m.) Ratten (Han. Wistar, Schering SPF, ca. 300 g KGW) durch Okklusion der linken Coronararterie. Die Kontrastmittelapplikation (Dosis: 100 µmol Gd / kg KGW) erfolgte ca. 24 h nach der Infarktinduktion. Die Tiere wurden vor und bis 3 h (kontinuierlich) sowie 24 h nach KM-Applikation MR-tomographisch (SISCO SIS 85, 2 Tesla; SE-Sequenz, EKG-getriggert, TR: ca. 400 ms, TE: 10 ms, nt=4, ni=256, FOV: 7*7 cm, SD ≈ 3 mm, je 1 Schicht axial) untersucht. Ca. 24 h p. i. wurden die Tiere - im MRT - durch eine Narkotikaüberdosis getötet und ein MRI-Experiment am "frischtoten" Tier (--> keine Bewegungsartefakte) durchgeführt. […]

[3] = Determination of relaxivity R1; format: physicochemical; conditions: Wasser; 40°C; 0,47 Tesla; Minispec PC 20; n=3
Protocol: • Bestimmung der Relaxivity R1 [L·mmol^-1 ·s^-1] • Gerät: Minispec PC 20 • Messung bei 40°C; 0,47 Tesla • T1-Sequenz: 180°-TI-90°, Inversion Recovery

[4] = system: humanem Coloncarcinom (HT-29 P9); assay: Effect of light (ED50) on a tumour cell culture in the presence of porphyrins (phototoxicity); format: cell-based, human; conditions: concentration at which about half of the cells are no longer vital, 3 days xenon lamp (8,5 k Lux, UV filter), 2 x 30 min daily, count on day 4
Protocol: In Kulturflaschen von 25 ml Inhalt wird eine Zellkultur von humanem Coloncarcinom (HT-29 P9) 3 Tage bei 37°C vermehrt. Die Kulturen werden in zwei Grupen aufgeteilt und mit Lösungen der Prüfsubstanzen (50 mmol Porphyrineinheit (PE) /l, verdünnt mit fötalem Kälberserum) in zunehmender Menge (0; 1,5; 5; 8,5; 12; 15,5; 19 µmol PE/l) versetzt. Die Proben werden drei Tage lang mit einer Xenon-Lampe (8,5 k Lux, UV-Filter) bestrahlt. Die erste Gruppe erhält täglich 2 Bestrahlungen von je 30 Minuten Dauer im Abstand von 4 Stunden. Die restliche Zeit bleibt sie im Dunkeln im Brutschrank. Die zweite Gruppe wird nicht belichtet und bleibt die gesamte Zeit im Dunkeln im Brutschrank. Am vierten Tag wird das Zellwachstum durch Lebend-Tot-Färbung und Zählung mit der Zählkammer bestimmt.
In der Tabelle ist die Konzentration angegeben, bei der etwa die Hälfte der Zellen nicht mehr vital ist.

[5] = Acute tolerance after single intravenous administration; format: in vivo, SPF-Mäuse (NMRI, Schering); conditions: mouse, single i.v., observation 7 days
Protocol: Es soll die Akute Verträglichkeit der Titelverbindung aus Beispiel 2d nach einmaliger intravenöser Gabe an der Maus untersucht werden.
Testmethode: Methode KM D1, 5. Auflage Tiermaterial: SPF-Mäuse (NMRI, Schering), 18-22 g, f:m = 50:50 Injektionsgeschwindigkeit: 2 ml/min. Kriterium der Wirksamkeit: exitus letalis Beobachtungszeitraum: 7 Tage

[6] = plasma, rats n=3, i.v., 82 µmol Gd/kg (Verbindung 1), 103 µmol Dy/kg (Verbindung 2)

For “{mu-[{16,16'-[Chloroeisen(III)-7, 12-diethyl-3, 8, 13, 17-tetramethylporphyrin-2, 18-diyl]-bis[3, 6, 9-tris(carboxymethyl)-11,14-dioxo-3, 6, 9, 12, 13-pentaazahexadecanoato]}(8-)]}-digadolinato(2-) [Beispiel 1d]”, which Vd ss [1, 6] is on record?
The Vd ss was 0.08 ± 0.00 L/kg.

And the α-t½ [1, 6]?
Its α-t½ is 3.56 ± 1.01 min.

What about the β-t½ [1, 6] of the same substance?
The β-t½ was 2.88 h and 2.8817 ± 0.646 h.

And the Blutkonzentrationen ([1]; after 120 min)?
The Blutkonzentrationen was 22-25 % der Dosis.

What about the Blutkonzentrationen ([1]; after three minutes) of the same substance?
The Blutkonzentrationen was 56-63 % der Dosis.

And the “Enhancement im nekrotischen Areal des Myocards” value [2]?
The value was “deutliches Enhancement”.

And the “Abgrenzung des nekrotischen Areals im MRI-Experiment, Korrelation mit histologischer NBT ("Vital"-) Färbung” value [2]?
The value was “korreliert sehr gut”.

What about the “Relaxivity R1” value [3] of the same substance?
The value was 11.9 ± 1.0 L/mmol/s.

And the ED50 [4]?
Its ED50 is > 1,25 mmol PE/l.

Which “Enhancement im nekrotischen Areal des Myocards” value [2] does the source give for “{mu-[{16,16'-[Kupfer(II)-7, 12-diethyl-3, 8, 13, 17-tetramethylporphyrin-2,18-diyl]-bis[3, 6, 9-tris(carboxymethyl)-11, 14-dioxo-3, 6, 9, 12, 13-pentaazahexadecanoato]}(8-)]}-digadolinato(2-), Dinatrium [Beispiel 4d]” here?
Its value is “deutliches Enhancement”.

What about the “Abgrenzung des nekrotischen Areals im MRI-Experiment, Korrelation mit histologischer NBT ("Vital"-) Färbung” value [2] of the same substance?
Its value is “korreliert sehr gut”.

What about the “Relaxivity R1” value [3] of the same substance?
Its value is 11.0 ± 0.1 L/mmol/s.

And the ED50 [4]?
The ED50 was > 1,25 mmol PE/l.

For “{mu-[{16, 16'-(7, 12-Diethyl-3, 8, 13, 17-tetramethylporphyrin-2, 18-diyl]-bis[3,6,9-tris(carboxymethyl)-11, 14-dioxo-3, 6, 9,12, 13-pentaazahexadecanoato]}(8-)]}-digadolinato(2-),-Dinatrium [IV, reference compound]”, which “Relaxivity R1” value [3] is on record?
Its value is 9.2 ± 0.1 L/mmol/s.

What about the ED50 [4] of the same substance?
The ED50 was 6,4·10^-3 mmol PE/l.

With “{mu-[{16, 16'-[Chloromangan(III)-7, 12-diethyl-3, 8, 13, 17-tetramethylporphyrin-2, 18-diyl]-bis[3, 6, 9-tris(carboxymethyl)-11, 14-dioxo-3, 6, 9, 12, 13-pentaazahexadecanoato]}(8-)]}-digadolinato(2-),-Dinatrium [Beispiel 2d]” as the substance, how does the LD50 ([5]; 2 ml/min, value stated as to be expected) read?
Its LD50 is no less than 5 mmol Gd/kg.

What about the “Lebern und Nieren aller überlebenden Tiere” value [5] of the same substance?
The value was “unauffällig”.

What about the “Enhancement im nekrotischen Areal des Myocards” value [2] of the same substance?
The value was “deutliches Enhancement”.

What about the “Abgrenzung des nekrotischen Areals im MRI-Experiment, Korrelation mit histologischer NBT ("Vital"-) Färbung” value [2] of the same substance?
The value was “korreliert sehr gut”.

What about the “Relaxivity R1” value [3] of the same substance?
The value was 9.3 ± 0.1 L/mmol/s.

And the ED50 [4]?
Its ED50 is > 1,25 mmol PE/l.
